The text below walks through data of patent US20160077081A1, “METHOD FOR A CELL-BASED DRUG SCREENING ASSAY AND THE USE THEREOF” (QGEL SA, priority 2013, published 2016).

For test [1], the system named is Colon cancer HCT 116 cells. In words: Alamar Blue metabolic readout on colonies of HCT 116 cells in a three-dimensional matrix, early-/late-stage treatment schedule. The test is classed as cell-based. Particulars: for Hit in drug screening (metabolic readout, Alamar Blue): 10 μM. How it is done: An example is given comprising an “early-” and a “late-stage” drug treatment for cells grown in three-dimensional matrices. Conditions of different cancer stages are identified, derived from profiling assays, as in FIG. 1, and schedules for drug screening are determined accordingly. Here, different cancer stages for cells cultured in three-dimensional matrices are determined as “early-” and “late-stage” cancer treatment.
The “early-stage” comprises two time points for readout. The first point of time at day seven is at the end of the drug treatment, whereas the second point in time at day eleven follows a drug-free recovery phase. The “late-stage” comprises two time points for readout. The first point in time at day seventeen is at the end of a second (independent from “early-stage”) drug treatment phase. The second point in time at day twenty-one follows a drug-free recovery phase. Measurements at additional points in time can be performed before the start of treatment and/or after different drug-free recovery phases.
In contrary, the “late-stage” illustrates existence of larger spheroids with a diameter of 155 μm, low cell proliferation (shown in FIG. 9), and presence of hypoxic condition (FIG. 1C). In both cases, the readouts are performed immediately after treatment end to test immediate drug efficacy, and after a four-day drug-free period to test recurrence of “mini-tumour” growth and/or retarded drug effects as the case observed with Gemcitabine (FIG. 10).
As an example for “Hit” generation a selection of drugs from a commercially available drug library (Prestwick) is used. In A) the effect of sixty drugs on cancer cells measured by metabolic readout (Alamar Blue®) is shown. […]
In FIG. 4 the determination of the half maximal inhibitory concentration (IC50) as an Alamar Blue® readout of selected “Hits” in FIG. 2, example 5-Fluorouracil (5-FU), on colonies of Colon cancer HCT 116 cells is shown. The readout was performed immediately after “early-” and “late-stage” treatments of cells in a three-dimensional matrix. […]
In general terms: Alamar Blue is a resazurin reagent that responds to reducing activity.

For test [2], the system named is Colon cancer HCT 116 cells. In words: Image-based analysis of cancer cell spheroid size in a three-dimensional matrix after early-/late-stage treatment. As to conditions: early-stage treatment, IC50 and 1 mM. As to the method: In FIG. 3B an image-based analysis quantifying the distribution of diameter sizes of cell colonies, specifically cancer spheroids measured immediately after “early-” and “late-stage” treatment is shown as an example of a selection of drugs from FIG. 3 A at a drug concentration of 10 μM. Filled curves correspond to “hits” and unfilled curves are “no Hits” as determined using metabolic readouts at the ends of “early stage” and “late-stage” (Positive control: Cells treated with copper sulphate; negative control; Cells treated with DMSO).
In FIG. 4 the determination of the half maximal inhibitory concentration (IC50) as an Alamar Blue® readout of selected “Hits” in FIG. 2, example 5-Fluorouracil (5-FU), on colonies of Colon cancer HCT 116 cells is shown. The readout was performed immediately after “early-” and “late-stage” treatments of cells in a three-dimensional matrix. […] The IC50 curves obtained with two-dimensional reference assays are often similar to “early-stage” treatment conditions of the present invention (three-dimensional). This is also shown in the drug screening correlation of most “Hits” observed with the two assay methods in FIG. 3 A (upper panel). In FIG. 4 B an image-based analysis of cancer cell spheroids grown in a three-dimensional matrix after “early-” and “late-stage” treatment at selected drug concentrations, IC50 and 1 mM, are shown.

Test [3] concerns Pancreatic Panc-1 cancer cells. In words: Alamar Blue readout on Panc-1 cells in three-dimensional matrices, late-stage treatment with or without drug-free recovery. The test is classed as cell-based. The text has this: The “early-stage” comprises two time points for readout. The first point of time at day seven is at the end of the drug treatment, whereas the second point in time at day eleven follows a drug-free recovery phase. The “late-stage” comprises two time points for readout. The first point in time at day seventeen is at the end of a second (independent from “early-stage”) drug treatment phase. The second point in time at day twenty-one follows a drug-free recovery phase. Measurements at additional points in time can be performed before the start of treatment and/or after different drug-free recovery phases. […] The dose-dependant efficacy profiles for “late-stage” treatment with Gemcitabine on pancreatic cancer cells culture in three-dimensional matrices were measured according to Alamar Blue® readout before and after the drug-free recovery period of four to seven, days.

The test system of test [4] is Pancreatic Panc-1 cancer cells. In words: Two-dimensional reference assay on pancreatic cancer cells. The class given is cell-based. As to the method: For reference two-dimensional assays, cells are normally tested with drugs within the logarithmic proliferations phase between day one to four (FIG. 9). […] The dose-dependant efficacy profiles for “late-stage” treatment with Gemcitabine on pancreatic cancer cells culture in three-dimensional matrices were measured according to Alamar Blue® readout before and after the drug-free recovery period of four to seven, days.

With `O=c1[nH]cc(F)c(=O)[nH]1` [5-FU, 5-Fluorouracil], the “Hit in drug screening (metabolic readout, Alamar Blue)” value in test [1] (triplicate, selected Hit of the screening campaign, stage not stated) was “Hits”; in test [1] (late-stage treatment, three-dimensional matrix), “no Hit”. For the same compound, the “Potency (IC50 shift) from early to late treatment” value in test [1] (late-stage versus early-stage treatment, readout immediately after treatment, three-dimensional matrix) is given as “less potent”. The “Inhibition of spheroid growth” value in test [2] is on record as “strong inhibition”.
As to `Nc1ccn([C@@H]2O[C@H](CO)[C@@H](O)C2(F)F)c(=O)n1` [Gemcitabine], in test [3] (measured after drug-free recovery period of four to seven days), the “Cell growth inhibition (dose-dependent efficacy, Alamar Blue)” value was “potent cell growth inhibitor”. The “Activity (dose-dependent efficacy, Alamar Blue)” value in test [3] (measured immediately after the treatment) is “not shown to be active”. Besides, the “Activity (dose-dependent efficacy)” value in test [4] is “not shown to be active”.
